What was measured:
BTK [1] = molecular target: T1, BTK (Homo sapiens, UniProt Q06187); assay: BTK degradation, DC50 and Dmax of Table 1 (cell line not given); format: cell-based; design: endogenous in cells; conditions: for DC50: concentration giving 50% reduction of BTK expression level
JeKo-1 cells = assay: Antiproliferative effect, MTS cell viability assay, JeKo-1 cells; format: cell-based; conditions: Homo sapiens; JeKo-1 mantle cell lymphoma cells; read-out: IC50 (anti-proliferation) JeKO-1 cells
In short: (§1)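 Tested at six concentrations (0 to 10 μM in tenfold steps), 72 h; viability by MTS, A490.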

Mino cells = assay: Antiproliferative effect, MTS cell viability assay, Mino cells; format: cell-based; conditions: Homo sapiens, MINO, Mino mantle cell lymphoma cells; read-out: IC50 (anti-proliferation) Mino cells
In short: as §1

BTK [2] = molecular target: T1, BTK; assay: Degradation of BTK protein in Namalwa cells (Western blot; DC50, Dmax); conditions: Namalwa B lymphocyte cells, Western blot; for degradation of BTK protein: various concentrations, 24 hours

T1 sequence (Q06187 whole entry): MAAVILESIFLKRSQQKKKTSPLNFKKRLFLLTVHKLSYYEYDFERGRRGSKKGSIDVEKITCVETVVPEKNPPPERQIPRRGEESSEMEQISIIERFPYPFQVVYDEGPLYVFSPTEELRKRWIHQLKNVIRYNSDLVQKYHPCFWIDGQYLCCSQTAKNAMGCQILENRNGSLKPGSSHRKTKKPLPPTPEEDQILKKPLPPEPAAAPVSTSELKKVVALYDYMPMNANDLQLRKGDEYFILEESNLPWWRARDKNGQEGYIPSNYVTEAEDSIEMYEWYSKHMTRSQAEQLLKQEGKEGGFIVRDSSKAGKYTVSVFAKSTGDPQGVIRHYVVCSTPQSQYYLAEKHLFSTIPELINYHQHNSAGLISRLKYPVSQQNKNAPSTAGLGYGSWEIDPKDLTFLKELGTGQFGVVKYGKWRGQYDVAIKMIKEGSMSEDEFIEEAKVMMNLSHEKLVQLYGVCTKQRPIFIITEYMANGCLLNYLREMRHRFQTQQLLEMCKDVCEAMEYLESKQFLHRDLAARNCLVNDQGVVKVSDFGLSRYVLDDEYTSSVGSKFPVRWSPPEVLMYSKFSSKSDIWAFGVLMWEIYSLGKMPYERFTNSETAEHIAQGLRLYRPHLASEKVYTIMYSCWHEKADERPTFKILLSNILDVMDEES

Structure (SMILES) | Dmax (BTK [1]) | DC50 (BTK [1]) | IC50 (JeKo-1 cells) | IC50 (Mino cells) | degradation of BTK protein at 10^−6 M (BTK [2]) | degradation of BTK protein (BTK [2])
Nc1ncnc2c1c(-c1ccc(Oc3ccccc3)cc1)nn2[C@@H]1CCCN(C(=O)N2CCN(c3ccc4c(c3)C(=O)N(C3CCC(=O)NC3=O)C4=O)CC2)C1 (stereo partly drawn) [Compound 45, 5-(4-((R)-3-(4-amino-3-(4-phenoxyphenyl)-1H-pyrazolo[3,4-d]pyrimidin-1-yl)piperidine-1-carbonyl)piperazin-1-yl)-2-(2,6-dioxopiperidin-3-yl)isoindoline-1,3-dione] | > 50% | > 50 nM | > 10 µM | > 10 µM | degradation | 
Nc1ncnc2c1c(-c1ccc(Oc3ccccc3)cc1)nn2[C@@H]1CCCN(C(=O)N2CCC(C3CCN(c4ccc5c(c4)C(=O)N(C4CCC(=O)NC4=O)C5=O)CC3)CC2)C1 (stereo partly drawn) [Compound 49, 5-(1′-((R)-3-(4-amino-3-(4-phenoxyphenyl)-1H-pyrazolo(3,4-d)pyrimidin-1-yl)piperidine-1-carbonyl)-(4,4′-bipiperidin)-1-yl)-2-(2,6-dioxopiperidin-3-yl)isoindoline-1,3-dione] | > 90% | 10 to 50 nM | 1 to 10 µM | 1 to 10 µM | degradation | 
Nc1ncnc2c1c(-c1ccc(Oc3ccccc3)cc1)nn2[C@@H]1CCCN(C(=O)N2CCC(N3CCN(c4ccc5c(c4)C(=O)N(C4CCC(=O)NC4=O)C5=O)CC3)CC2)C1 (stereo partly drawn) [Compound 51, 5-(4-(1-((R)-3-(4-amino-3-(4-phenoxyphenyl)-1H-pyrazolo(3,4-d)pyrimidin-1-yl)piperidine-1-carbonyl)piperidin-4-yl)piperazin-1-yl)-2-(2,6-dioxopiperidin-3-yl)isoindoline-1,3-dione] | > 90% | < 10 nM | < 1 µM | < 1 µM | degradation | dose-dependent degradation
Nc1ncnc2c1c(-c1ccc(Oc3ccccc3)cc1)nn2[C@@H]1CCCN(C(=O)N2CCC(CN3CCN(c4ccc5c(c4)C(=O)N(C4CCC(=O)NC4=O)C5=O)CC3)CC2)C1 (stereo partly drawn) [Compound 55, 5-(4-((1-((R)-3-(4-amino-3-(4-phenoxyphenyl)-1H-pyrazolo(3,4-d)pyrimidin-1-yl)piperidine-1-carbonyl)piperidin-4-yl)methyl)piperazin-1-yl)-2-(2,6-dioxopiperidin-3-yl)isoindoline-1,3-dione] | > 90% | 10 to 50 nM | < 1 µM | < 1 µM | degradation | dose-dependent degradation
Nc1ncnc2c1c(-c1ccc(Oc3ccccc3)cc1)nn2[C@@H]1CCCN(C(=O)N2CCC(CCN3CCN(c4ccc5c(c4)C(=O)N(C4CCC(=O)NC4=O)C5=O)CC3)CC2)C1 (stereo partly drawn) [Compound 63, 5-(4-(2-(1-((R)-3-(4-amino-3-(4-phenoxyphenyl)-1H-pyrazolo(3,4-d)pyrimidin-1-yl)piperidine-1-carbonyl)piperidin-4-yl)ethyl)piperazin-1-yl)-2-(2,6-dioxopiperidin-3-yl)isoindoline-1,3-dione] | > 90% | < 10 nM | 1 to 10 µM | 1 to 10 µM | degradation | dose-dependent degradation
Nc1ncnc2c1c(-c1ccc(Oc3ccccc3)cc1)nn2C1CCN(C(=O)N2CCN(c3ccc4c(c3)C(=O)N(C3CCC(=O)NC3=O)C4=O)CC2)CC1 (centres unmarked) [Compound 75, 5-(4-(4-(4-amino-3-(4-phenoxyphenyl)-1H-pyrazolo(3,4-d)pyrimidin-1-yl)piperidine-1-carbonyl)piperazin-1-yl)-2-(2,6-dioxopiperidin-3-yl)isoindoline-1,3-dione] | > 50% | > 50 nM | > 10 µM | > 10 µM | degradation | 
Nc1ncnc2c1c(-c1ccc(Oc3ccccc3)cc1)nn2C1CCN(C(=O)N2CCC(C3CCN(c4ccc5c(c4)C(=O)N(C4CCC(=O)NC4=O)C5=O)CC3)CC2)CC1 (centres unmarked) [Compound 79, 5-(1′-(4-(4-amino-3-(4-phenoxyphenyl)-1H-pyrazolo(3,4-d)pyrimidin-1-yl)piperidine-1-carbonyl)-(4,4′-bipiperidin)-1-yl)-2-(2,6-dioxopiperidin-3-yl)isoindoline-1,3-dione] | > 75% | > 50 nM | > 10 µM | > 10 µM | degradation | 
Nc1ncnc2c1c(-c1ccc(Oc3ccccc3)cc1)nn2C1CCN(C(=O)N2CCC(C3CCN(c4ccc5c(c4)CN(C4CCC(=O)NC4=O)C5=O)CC3)CC2)CC1 (centres unmarked) [Compound 80, 3-(5-(1′-(4-(4-amino-3-(4-phenoxyphenyl)-1H-pyrazolo[3,4-d]pyrimidin-1-yl)piperidine-1-carbonyl)-[4,4′-bipiperidin]-1-yl)-1-oxoisoindolin-2-yl)piperidine-2,6-dione] | > 75% | > 50 nM | > 10 µM | > 10 µM | degradation | 
Nc1ncnc2c1c(-c1ccc(Oc3ccccc3)cc1)nn2C1CCN(C(=O)N2CCC(N3CCN(c4ccc5c(c4)C(=O)N(C4CCC(=O)NC4=O)C5=O)CC3)CC2)CC1 (centres unmarked) [Compound 81, 5-(4-(1-(4-(4-amino-3-(4-phenoxyphenyl)-1H-pyrazolo(3,4-d)pyrimidin-1-yl)piperidine-1-carbonyl)piperidin-4-yl)piperazin-1-yl)-2-(2,6-dioxopiperidin-3-yl)isoindoline-1,3-dione] | > 75% | > 50 nM | > 10 µM | > 10 µM |  | dose-dependent degradation
Nc1ncnc2c1c(-c1ccc(Oc3ccccc3)cc1)nn2C1CCN(C(=O)N2CCC(CN3CCN(c4ccc5c(c4)C(=O)N(C4CCC(=O)NC4=O)C5=O)CC3)CC2)CC1 (centres unmarked) [Compound 85, 5-(4-((1-(4-(4-amino-3-(4-phenoxyphenyl)-1H-pyrazolo(3,4-d)pyrimidin-1-yl)piperidine-1-carbonyl)piperidin-4-yl)methyl)piperazin-1-yl)-2-(2,6-dioxopiperidin-3-yl)isoindoline-1,3-dione] | > 90% | < 10 nM | < 1 µM | < 1 µM | degradation | dose-dependent degradation
Nc1ncnc2c1c(-c1ccc(Oc3ccccc3)cc1)nn2C1CCN(C(=O)N2CCC(CCN3CCN(c4ccc5c(c4)C(=O)N(C4CCC(=O)NC4=O)C5=O)CC3)CC2)CC1 (centres unmarked) [Compound 93, 5-(4-(2-(1-(4-(4-amino-3-(4-phenoxyphenyl)-1H-pyrazolo(3,4-d)pyrimidin-1-yl)piperidine-1-carbonyl)piperidin-4-yl)ethyl)piperazin-1-yl)-2-(2,6-dioxopiperidin-3-yl)isoindoline-1,3-dione] | > 90% | 10 to 50 nM | 1 to 10 µM | 1 to 10 µM | degradation | dose-dependent degradation
Nc1ncnc2c1c(-c1ccc(Oc3ccccc3)cc1)nn2[C@@H]1CCCN(C2CCN(C(=O)N3CCN(c4ccc5c(c4)C(=O)N(C4CCC(=O)NC4=O)C5=O)CC3)CC2)C1 (stereo partly drawn) [Compound 159, 5-(4-((R)-3-(4-amino-3-(4-phenoxyphenyl)-1H-pyrazolo(3,4-d)pyrimidin-1-yl)-(1,4′-bipiperidine)-1′-carbonyl)piperazin-1-yl)-2-(2,6-dioxopiperidin-3-yl)isoindoline-1,3-dione] | > 50% | > 50 nM | > 10 µM | 1 to 10 µM | degradation | 
Nc1ncnc2c1c(-c1ccc(Oc3ccccc3)cc1)nn2[C@@H]1CCCN(C2CCN(C(=O)N3CCC(C4CCN(c5ccc6c(c5)C(=O)N(C5CCC(=O)NC5=O)C6=O)CC4)CC3)CC2)C1 (stereo partly drawn) [Compound 163, 5-(1′-((R)-3-(4-amino-3-(4-phenoxyphenyl)-1H-pyrazolo(3,4-d)pyrimidin-1-yl)-(1,4′-bipiperidine)-1′-carbonyl)-(4,4′-bipiperidin)-1-yl)-2-(2,6-dioxopiperidin-3-yl)isoindoline-1,3-dione] | > 75% | > 50 nM | > 10 µM | 1 to 10 µM | degradation | dose-dependent degradation
Nc1ncnc2c1c(-c1ccc(Oc3ccccc3)cc1)nn2[C@@H]1CCCN(C2CCN(C(=O)N3CCC(CN4CCN(c5ccc6c(c5)C(=O)N(C5CCC(=O)NC5=O)C6=O)CC4)CC3)CC2)C1 (stereo partly drawn) [Compound 169, 5-(4-((1-((R)-3-(4-amino-3-(4-phenoxyphenyl)-1H-pyrazolo(3,4-d)pyrimidin-1-yl)-(1,4′-bipiperidine)-1′-carbonyl)piperidin-4-yl)methyl)piperazin-1-yl)-2-(2,6-dioxopiperidin-3-yl)isoindoline-1,3-dione] | > 90% | 10 to 50 nM | < 1 µM | 1 to 10 µM | degradation | dose-dependent degradation
Nc1ncnc2c1c(-c1ccc(Oc3ccccc3)cc1)nn2[C@@H]1CCCN(C2CCN(C(=O)N3CCC(CCN4CCN(c5ccc6c(c5)C(=O)N(C5CCC(=O)NC5=O)C6=O)CC4)CC3)CC2)C1 (stereo partly drawn) [Compound 181, 5-(4-(2-(1-((R)-3-(4-amino-3-(4-phenoxyphenyl)-1H-pyrazolo(3,4-d)pyrimidin-1-yl)-(1,4′-bipiperidine)-1′-carbonyl)piperidin-4-yl)ethyl)piperazin-1-yl)-2-(2,6-dioxopiperidin-3-yl)isoindoline-1,3-dione] | > 75% | 10 to 50 nM | 1 to 10 µM | 1 to 10 µM | degradation | dose-dependent degradation

Source: patent publication US12139492B2 (Endotarget Inc., priority 2021, dated 2024)
